# Experimental data published in US11607417B2, “Uses of celastrol in preventing and/or treating cholestatic liver disease and liver fibrosis” (KUNMING INSTITUTE OF BOTANY, THE CHINESE ACADEMY OF SCIENCES, priority 2017, dated 2023).
# Values joined by “and” are separate entries in the source; they are usually repeats but may differ in a detail not shown here. Equal entries are not always repeated.
# What was measured:
# [1] = test system: ANIT-induced cholestatic liver injury; experiment: ANIT-induced mouse cholestatic liver injury (Example 1); assay type: in vivo, C57BL/6 mice
# Method: A total of 18 male C57BL/6 mice were divided into three groups: blank group (n=6); model group (n=6); treatment group (n=6).
# Celastrol was dissolved in a solvent to obtain a celastrol solution at a concentration of 2 mg/mL, wherein the solvent consisted of 1% DMSO, 2% Tween 80, and 97% water (v:v:v). For intragastrical administration, the dosage of celastrol was 10 mg/kg·d. ANIT was dissolved in corn oil to obtain a corn oil solution of ANIT at a concentration of 15 mg/mL, and the dosage of ANIT for intragastrical administration was 75 mg/kg.
# The treatment group was intragastrically administered with the celastrol solution at a dosage of 10 mg/kg·d for five consecutive days. At the same time, the blank group and the model group were intragastrically administered with the same dosage of a solvent, wherein the solvent consisted of 1% DMSO, 2% Tween 80 and 97% water (v:v:v), and the solvent was administrated for five consecutive days.
# On the third day of administration, ANIT model was established. 4 Hours after administration with the solvent or celastrol solution, the model group and the treatment group were respectively intragastrically administered with the ANIT corn oil solution to induce cholestatic liver injury at a dosage of 75 mg/kg for single administration, and the blank group was fed with an equal dosage of corn oil. After the model was established, the treatment group was continuously administrated with the celastrol solution, and the blank group and the model group was continuously administrated with the same dosage of solvent.
# 48 Hours after the model was established, the mice were sacrificed by CO2 anesthesia, and mouse livers and plasma samples were taken. The eyeballs of the mice were taken for blood collection. The plasma samples were placed on ice for 1-2 hours, centrifuged at 4000 g for 5 minutes at 4° C., and the supernatant was taken to determine the plasma biochemical indicators, the levels of ALT, AST and ALP.
# At the same time, plasma samples were prepared: 10 μL of plasma sample was taken, mixed with 190 μL of 67% (v/v) acetonitrile (containing 5 μM internal standard chlorpropamide), centrifuged at 18000 g for 20 minutes at 4° C., and the supernatant was taken for sample injection.
# Liver samples were prepared: 100 mg of liver samples were mixed well with 1 mL of 50% (v/v) acetonitrile (containing 5 μM internal standard chlorpropamide), shaken for 20 minutes at room temperature, and then centrifuged at 18000 g for 20 minutes at 4° C. Thereafter, 200 μL of the supernatant was taken and added with 200 μL of pure acetonitrile, vortexed for 1 minute, centrifuged at 18000 g for 20 minutes at 4° C., and the supernatant was taken for sample injection.
# The liquid chromatography conditions were as follows: the injection volume was 5 μL; the column temperature was 45° C.; the flow rate of mobile phase was 0.3 mL/min; the gradient elution was that acetonitrile concentration changed from 2% to 98% during 16 minutes of operation, wherein the mobile phase (water/acetonitrile solution) contained 0.01% formic acid. The elution procedure was as follows: during 0-12th minute, the acetonitrile concentration changed from 2% to 98% at a constant rate; during 12-14th minute, the acetonitrile concentration was maintained at 98%; during 14-14.1th minute, the acetonitrile concentration changed from 98% to 2%; during 14.1-16th minute, the acetonitrile concentration was maintained at 2%. Mass spectrometry conditions were as follows: the temperature of dry gas was 350° C., the pressure of nebulizer was 35 psi, and the voltage of capillary was 3.5 kV.
# Part of the collected mouse liver tissue was fixed overnight in formalin and tissue sections were stained with hematoxylin and eosin (H&E).
# [2] = test system: TAA-induced cholestatic liver injury under SIRT1 inhibition; experiment: Effect of SIRT1 inhibition (EX527) on celastrol activity in TAA model (Example 4); assay type: in vivo, C57BL/6 mice
# Method: A total of 24 male C57BL/6 mice were divided into four groups: blank group (n=6);
# model group (n=6); treatment group (n=6); EX527 group (n=6).
# Celastrol was dissolved in a solvent to obtain a solution of celastrol at a concentration of 2 mg/mL, wherein the solvent consisted of 1% DMSO, 2% Tween, and 97% water (v:v:v). For intragastrical administration, the dosage of celastrol was 10 mg/kg·d. TAA was dissolved in 0.9% NaCl solution to prepare a NaCl solution of TAA at a concentration of 60 mg/mL, and the dosage of TAA for intraperitoneal administration was 300 mg/kg. EX527 was dissolved in corn oil to prepare a corn oil solution of EX527 at a concentration of 2 mg/mL, and the dosage of EX527 for intraperitoneal administration was 10 mg/kg. d.
# The EX527 group was simultaneously administered with the celastrol solution and the EX527 corn oil solution for 4 consecutive days. The treatment group was administrated with the celastrol solution and an equal dosage of corn oil for 4 consecutive days. At the same time, the blank group and the model group were administrated with equal dosages of solvent (1% DMSO, 2% Tween 80 and 97% water (v:v:v)) and corn oil, and the solvent was administrated for 4 consecutive days.
# On the 4th day, the establishment of TAA model was performed. 1 Hour after administration, the mice in the model group, the treatment group and the EX527 group were intraperitoneally injected with TAA at a dosage of 300 mg/kg to induce cholestatic liver injury. 24 Hours after administration with TAA, the mice were sacrificed by CO2 anesthesia, and plasma samples and liver samples were collected. The eyeballs of the mice were taken for blood collection. The plasma samples were placed on ice for 1-2 hours, centrifuged at 4000 g for 5 minutes at 4° C., and the supernatants of plasma samples were taken to determine the plasma biochemical indicators, the levels of ALT, AST, and ALP.
# At the same time, plasma samples were prepared: 10 μL of plasma sample was mixed with 190 μL of 67% acetonitrile (containing 5 μM internal standard chlorpropamide), centrifuged at 18000 g for 20 minutes at 4° C., and the supernatant was taken for sample injection. The liquid chromatography conditions were as follows: the volume of injection was 5 μL; the temperature of column was 45° C.; the flow rate of mobile phase was 0.3 mL/min; the gradient elution was that acetonitrile concentration changed from 2% to 98% during 16 minutes of operation, wherein the mobile phase (water/acetonitrile solution) contained 0.01% formic acid. The elution procedure was as follows: during 0-12th minute, the acetonitrile concentration changed from 2% to 98% at a constant rate; during 12-14th minute, the acetonitrile concentration was maintained at 98%; during 14-14.1th minute, the acetonitrile concentration changed from 98% to 2%; during 14.1-16th minute, the acetonitrile concentration was maintained at 2%. Mass spectrometry conditions were as follows: the temperature of dry gas was 350° C., the pressure of nebulizer was 35 psi, and the voltage of capillary was 3.5 kV.
# Part of the collected mouse liver tissue was fixed overnight in formalin, and tissue sections were stained with hematoxylin and eosin (H&E).
# [3] = celastrol 10 mg/kg·d intragastric 5 days, ANIT 75 mg/kg on day 3, 48 h after ANIT, n=6
# [4] = celastrol 10 mg/kg·d intragastric 5 days, ANIT 75 mg/kg, 48 h after ANIT, n=6
# [5] = treatment group: celastrol 10 mg/kg·d, TAA model, P<0.05, FIG. 4E
smiles,measurement,setting,value
"CC1=C(O)C(=O)C=C2C1=CC=C1[C@@]2(C)CC[C@@]2(C)[C@@H]3C[C@](C)(C(=O)O)CC[C@]3(C)CC[C@]12C [celastrol, Celastrol]",Levels of bile acids in plasma vs ANIT model group,"[1]; CA, DCA, TβMCA/TαMCA, TCA, THDCA/TUDCA, celastrol 10 mg/kg·d, FIG. 1D",significantly lower
same,Liver weight of mouse when sacrificed,[1]; [3],1.01 g and 1.01 ± 0.05 g
same,Liver weight/body weight,[1]; [3],4.66% and 4.66 ± 0.23 %
same,ALP in mouse plasma,[1]; [4],27.3 ± 3.7 U/l
same,ALT in mouse plasma,[1]; [4],54.0 ± 36.4 U/l
same,AST in mouse plasma,[1]; [4],72.0 ± 34.4 U/l
same,H&E staining of mouse liver tissue,"[1]; celastrol 10 mg/kg·d intragastric, ANIT model, FIG. 1C",no obvious damage
same,Levels of bile acids in liver vs ANIT model group,"[1]; ω-MCA, β-MCA, CA, DCA, TβMCA/TαMCA, TCA, GCA, TLCA, celastrol 10 mg/kg·d, FIG. 1E",significantly lower
same,H&E staining: area of necrosis of liver cells,"[2]; treatment group: celastrol 10 mg/kg·d intragastric + corn oil, TAA model, FIG. 4C",significantly reduced
same,ALT level in plasma vs model group,[2]; [5],lower
same,AST level in plasma vs model group,[2]; [5],lower
same,Levels of bile acids in plasma vs TAA model group,"[2]; ω-MCA, DCA, TβMCA/TαMCA, TCA, THDCA/TUDCA, TCDCA, TDCA, treatment group: celastrol 10 mg/kg·d, P<0.05, FIG. 4F",significantly lower
